According to US20180228811A1, “GDNF INDUCTION FOR THE TREATMENT OF RETINAL DISORDERS” (THE SCHEPENS EYE RESEARCH INSTITUTE, INC., priority 2014, published 2018):

Experiments:
GDNF [1] = assay: GDNF induction in human retinal progenitor cells (hRPC) (ELISA); assay type: cell-based
Procedure: (§1) GDNF induction […] was assessed using three retinal-specific cell systems: ARPE19, as a model for human retinal pigment epithelium; human retinal progenitor cells (hRPC), as a substitute for human retinal neurons/glia; and mouse eyecups, differentiated from induced pluripotent stem cells. ARPE19 cells are described in Dunn et al., Exp. Eye Res. 62: 155-169, 1996. To study GDNF induction in a human retinal pigment epithelium cell line, ARPE19, thawed ARPE19 cells (passage 33, ATCC) were plated on fibronectin (Akron)-coated plates (Nunc) in stimulation medium at a density of 10 k cells/sq.cm. The flasks were incubated at standard conditions: 37° C., 5% CO2, 100% humidity. Cells were plated 24 hours prior to Compound I treatment and were grown in Ultraculture medium (Lonza), supplemented with 1×MEM NEAA (Gibco), 1× L-glutamine (Gibco), 1× Antibiotic/antimycotic (Gibco), 2 ng/ml bFGF (Peprotech), 1 ng/ml EGF (Peprotech). For qPCR analysis, the experiments were performed in 35 mm Petri dishes in 2 ml of medium with Compound I concentration of 100 nM (DMSO-based solution). Total mRNA was isolated at 0, 15, 30, 60, 120, 240 minutes post stimulation. For protein expression determination by ELISA, the experiments were performed in 96 well plates in 100 ul of medium with each condition (concentrations ranging from 0 to 10 uM) reproduced in 3 wells. For ELISA analysis, plates were removed from out of incubator 24 hours post stimulation and freeze-thawed followed by CHAPS lysis buffer treatment for total mRNA extraction. The ELISA analysis for GDNF was performed using GDNF DuoSet kit (R&D systems) using manufacturer's instructions.
Experiments with human retinal progenitor cell line (hRPC) were performed in a similar manner (Baranov et al., Tissue Eng Part A 20, 140124133442001-1475 (2014)): hRPC were thawed and plated (passage 15) in 96 well plates using the same conditions and density as described above for ARPE19. The cell treatment, sample collection and readout were performed using the same protocol. […]

GDNF [2] = assay: GDNF protein induction in ARPE19 cells (ELISA); assay type: cell-based, human
Procedure: as §1

GDNF mRNA = GDNF mRNA time-course in ARPE19 cells (qPCR); assay type: cell-based, human; details: ARPE19, 100 nM Compound I, normalized by GAPDH and ßActin
Procedure: as §1, with “For ELISA analysis, plates were removed from out of incubator 24 hours post stimulation and freeze-thawed followed by CHAPS lysis buffer treatment for total mRNA extraction. The ELISA analysis for GDNF was performed using GDNF DuoSet kit (R&D systems) using manufacturer's instructions.” left out

[3] = Pharmacokinetic studies of Compound I sustained release formulation (suspension) in wild-type mice; assay type: in vivo, mouse; details: for Compound I content in the collected vitreoretinal samples / Compound I concentration in the vitreoretinal sample: 2 ul of 60 mg/ml suspension intravitreally; for total Compound I content per eye: suspension intravitreally
Procedure: To profile pharmacokinetics of Compound I after single intravitreal injection, 2 ul of Compound I suspension (60 mg/ml) were administered intravitreally to 3 week old wild-type (C57/Bl6) mice in the same way as described above for the solution. A beveled glass needle connected to a Hamilton syringe through polyethylene tubing was used. During the injection, corneal paracenthesis was performed to reduce intraocular pressure.
For enucleation animals were euthanized at several timepoints after injection: 1 hour (n=5), 1 day (n=3), 2 days (n=3), 7 days (n=3) and 14 days (n=3). The eyes were enucleated and placed in chilled phosphate-buffered saline and kept on ice. The eyes were dissected within 30 minutes post-enucleation: total retina and vitreous were collected into pre-weighed tubes, weighted and snap frozen. For Compound I content in the eye analysis retina and vitreous humor samples were diluted in 0.1% formic acid in 90:10 (v:v) acetonitrile:water before being analyzed for Compound I using an analytical method based on protein precipitation, followed by HPLC/MS/MS analysis. Using a 25 μL aliquot of sample, the lower limit of quantification (LLQ) for Compound I was 1.00 ng/mL. The computer systems that were used on this study to acquire and quantify data included Analyst Version 1.6.1 and SMS2000 version 2.3. The results were analyzed by ANOVA (p<0.05).

GDNF [4] = assay: GDNF induction by Compound I suspension in wild-type mice; assay type: in vivo, mouse; details: suspension intravitreally; for GDNF mRNA induction vs. vehicle / GDNF protein level vs. vehicle: wild-type mice
Procedure: To study GDNF induction by Compound I suspension (60 mg/ml), 2 ul of suspension (n=35) or Vehicle (n=5) were administered intravitreally to 3-week old wild-type (C57/Bl6) mice. A beveled glass needle connected to a Hamilton syringe through polyethylene tubing was ysed. During the injection, corneal paracenthesis was performed to reduce intraocular pressure.
Animals were euthanized at several timepoints after injection for enucleation and RNA/protein analysis (n=5 for each timepoint, n=4 for 7 days and 14 days): vehicle at 1 hour, Compound I at 1 hour, 1 day, 2 days, 7 days and 14 days. The treated and untreated eyes were enucleated and were collected for mRNA and protein expression as previously described. The treated and untreated eyes were enucleated and placed in 250 ul of chilled RNAlater buffer (Qiagen) and stored at 4° C. The eyes were excised and total neural retina with retinal pigment epithelium was collected into 400 ul of Lysis buffer (Qiagen RNeasy kit) with beta-mercaptoethanol. Total RNA was isolated using RNeasy kit (Qiagen) and eluted with 100 ul of Ultrapure water (Life technologies). All flow through from RNA isolation (˜2.4 ml) was collected and mixed with 10 ml of ice-cold (−20° C.) acetone for protein precipitation. The protein was precipitated at −20° C. for 30 minutes, then pelleted at 3500 rpm for 20 min. Pellets were washed once with 100% ethanol, then reconstituted with 300 ul of RIPA buffer with AEBSF. mRNA and protein expression were assessed by qPCR and Western blot (WB). The results were analyzed by ANOVA (p<0.05).

[5] = wt mice, 14 days post injection

COc1cc2c(cc1S(=O)(=O)c1ccc(OCc3ccc(Cl)cc3)cc1)CCN(C)CC2 [Compound I, 7-[4-(4-chloro-benzyloxy)-benzenesulfonyl]-8-methoxy-3-methyl-2,3,4,5-tetrahydro-1H-3-benzazepine]
GDNF induction (GDNF [1]): More than 2 fold | GDNF induction, result in words (GDNF [1]; 0 to 10 uM): Significant dose-dependent GDNF induction | concentration of Compound I at which GDNF was upregulated (GDNF [1]; ELISA, FIG. 1B): 1 µM | GDNF induction (GDNF [2]; ARPE19): More than 2 fold | GDNF induction, result in words (GDNF [2]; ARPE19, 0 to 10 uM): Significant dose-dependent GDNF induction | concentration of Compound I at which GDNF was upregulated (GDNF [2]; ARPE19, ELISA, FIG. 1C): 3 µM | increase of GDNF protein levels in vitro (GDNF [2]; in vitro, cell system not stated (mRNA was measured in ARPE19 only)): 1.8 fold | time of GDNF mRNA peak after stimulation (GDNF mRNA): 30 min | time drug may be present according to modeling ([3]; single 2 ul intravitreal injection of suspension, modeling): up to 4 weeks | Compound I content in the collected vitreoretinal samples ([3]; wt mice, 1 hour post-injection): 21 ug per milligram of tissue | Compound I concentration in the vitreoretinal sample ([3]; wt mice, 14 days): 5 mg/g tissue | Compound I content in the collected vitreoretinal samples [3, 5]: 5 ug per milligram of tissue | Compound I concentration in the vitreoretinal sample ([3]; wt mice, start of time course (1 hour)): 20 mg/g tissue | time the compound remained in the eye after single intravitreal injection ([3]; wt mice, single 2 ul injection of suspension): at least 2 weeks | total Compound I content per eye ([3]; wt mice, 1 hour post-injection): 80 µg | total Compound I content per eye [3, 5]: 28 µg | GDNF mRNA upregulation over the time course (GDNF [4]; C57Bl/6 mice, up to 14 days): > 1.8 fold | GDNF protein upregulation over the time course (GDNF [4]; C57Bl/6 mice, up to 14 days): > 2.8 fold | GDNF mRNA induction vs. vehicle (GDNF [4]; 1 hour): 1.4 fold | GDNF protein level vs. vehicle (GDNF [4]; 1 hour): 0.9 fold | GDNF mRNA induction vs. vehicle (GDNF [4]; 1 day): 1.3 fold | GDNF protein level vs. vehicle (GDNF [4]; 1 day): 1.6 fold | GDNF mRNA induction vs. vehicle (GDNF [4]; 2 days): 1.2 fold | GDNF protein level vs. vehicle (GDNF [4]; 2 days): 2.4 fold | GDNF mRNA induction vs. vehicle (GDNF [4]; 7 days): 1.8 fold | GDNF protein level vs. vehicle (GDNF [4]; 7 days): 2.7 fold | GDNF mRNA induction vs. vehicle (GDNF [4]; 14 days): 1.8 fold | GDNF protein level vs. vehicle (GDNF [4]; 14 days): 3.2 fold
